Experimental data from patent US7652067B2, “Aqueous compositions containing monoester salts” (Millenium Specialty Chemicals, Inc., priority 2006, dated 2010).

Key:
[1] = Solubilization of hydrophobic organic compound in aqueous sodium monomenthyl glutarate (Na-MMG); conditions: for concentration of hydrophobic compound in clear, homogeneous solution in aqueous Na-MMG: MMG neutralised with 8.8% aqueous sodium bicarbonate; for times better dissolved in aqueous Na-MMG than in pure water: aqueous Na-MMG vs pure water
Procedure: Aqueous sodium bicarbonate (98 g, 8.8% solution) is added over about 20 minutes to a stirred mixture of monomenthyl glutarate (“MMG,” 25 g) and dodecane (3.0 g). After the addition is complete and CO2 evolution stops, the mixture is stirred for 2 h and is then allowed to settle. The resulting mixture is a clear, homogeneous solution of dodecane (˜2.5%) in aqueous sodium monomenthyl glutarate (Na-MMG).
A clear aqueous solution of Na-MMG is obtained by reacting monomenthyl glutarate (25 g) with aqueous sodium bicarbonate (98 g of 8.8% solution). […] The mixture stirs for about 2 h and is allowed to cool to ambient temperature. […] Dilution with an equal volume of water produces a solution that remains clear for more than 40 days.
Aqueous sodium bicarbonate (196 g, 8.8% solution) is added to a stirred mixture of monomenthyl glutarate (50 g) and N-ethyl-p-menthane-3-carboxamide (“WS-3,” 2.0 g). After the addition is complete and CO2 evolution stops, the mixture is stirred for 1 h and is then allowed to sit overnight. The resulting mixture is a clear, homogeneous solution of WS-3 (˜0.83%) in aqueous Na-MMG.
More WS-3 (1.0 g) is added to the aqueous composition. The mixture stirs for 1 h and is allowed to stand overnight. The mixture is filtered to remove undissolved crystals (0.6 g).
Dilution with an equal volume of water produces a solution that remains clear for more than 40 days.

[2] = Dilution of the clear aqueous composition with an equal volume of water (clarity / emulsification); assay type: physicochemical; conditions: clear composition in aqueous Na-MMG diluted 1:1 with water
Procedure: It may be desirable to dilute the aqueous compositions with water. The amount of water that can be added while maintaining a clear aqueous solution depends on many factors known to those skilled in the art, including the nature of the hydrophobic organic compound, the particular monoester salt, the concentration of each of these components, and other factors. In general, the desirability of diluting the aqueous composition is determined empirically.

[3] = Control experiment: stirring hydrophobic compound with pure water; conditions: for control experiment with water: outcome: compound stirred with water without solubilizer
[4] = Solubilization of hydrophobic organic compound in aqueous sodium monooctyl glutarate (Na-MOG); assay type: physicochemical; conditions: MOG 22.6 g, procedure of Example 1
Source text: The procedure of Example 1 is followed except that monooctyl glutarate (MOG, 22.6 g) and p-cymene (5 g) are used. The resulting mixture is a clear, homogeneous solution of p-cymene (˜4.4%) in aqueous sodium monooctyl glutarate (Na-MOG).

[5] = Solubilization of hydrophobic organic compound in aqueous sodium monomenthyl succinate (Na-MMS); assay type: physicochemical; conditions: MMS 23.7 g, procedure of Example 1
Source text: The procedure of Example 1 is followed except that monomenthyl succinate (MMS, 23.7 g) and p-cymene (3 g) are used. The resulting mixture is a clear, homogeneous solution of p-cymene (˜2.5%) in aqueous sodium monomenthyl succinate (Na-MMS).

[6] = Organoleptic test of physiological cooling effect
Source text: The resulting mixture is a clear, homogeneous solution of WS-3 (˜0.83%) in aqueous Na-MMG.

Compound | concentration of hydrophobic compound in clear, homogeneous solution in aqueous Na-MMG [1] [%] | control experiment with water: outcome [3] | time solution remains clear after dilution with an equal volume of water [2] | also measured
CCCCCCCCCCCC [dodecane] | ~2.5 | fails to produce a homogeneous mixture |  | times better dissolved in aqueous Na-MMG than in pure water [1]: at least 50 times; emulsification after dilution with an equal volume of water [2]: emulsifies within two days; undissolved compound recovered after settling ([3]; 12 g stirred with 876 g water for 2 h): 11.6 g
C=C(C)[C@H]1CC=C(C)CC1 [d-limonene] |  | fails to produce a homogeneous mixture |  | 
CC(C)=CCCC(C)CCO (stereo not drawn) [citronellol] | ~3.6 | fail to produce a homogeneous mixture | more than 40 days | 
CC(C)=CCCC(C)CC#N (stereo not drawn) [citronellyl nitrile] | ~3.6 | fail to produce a homogeneous mixture |  | emulsification after dilution with an equal volume of water [2]: immediately produces an emulsion
CCNC(=O)[C@@H]1C[C@H](C)CC[C@H]1C(C)C [WS-3, N-ethyl-p-menthane-3-carboxamide] | ~0.83 |  |  | times better dissolved in aqueous Na-MMG than in pure water [1]: about 33 times; concentration of WS-3 in filtrate (aqueous Na-MMG) after removing undissolved crystals ([1]; more WS-3 added, stood overnight, filtered): ~1.0%; cooling effect when tested organoleptically ([6]; filtrate, ~1.0% WS-3 in aqueous Na-MMG): strong cooling effect; cooling effect when tested organoleptically ([6]; ~0.83% WS-3 in aqueous Na-MMG, pH 7.4): strong cooling effect; solubility in pure water ([3]; 20° C.): ~0.03%

The next lines start with results.

concentration of hydrophobic compound in clear, homogeneous solution in aqueous Na-MMG [1] [%] | control experiment with water: outcome [3] | time solution remains clear after dilution with an equal volume of water [2] | Compound | also measured
~3.6 | fail to produce a homogeneous mixture | more than 40 days | C=C(C)[C@@H]1CC=C(C)C(=O)C1 [l-carvone] | 
~3.6 | fail to produce a homogeneous mixture |  | Cc1ccc(C(C)C)cc1 [p-cymene] | concentration of hydrophobic compound in clear, homogeneous solution in aqueous Na-MOG [4]: ~4.4%; concentration of hydrophobic compound in clear, homogeneous solution in aqueous Na-MMS [5]: ~2.5%; emulsification after dilution with an equal volume of water [2]: ≤ 2 days
 | fail to produce a homogeneous mixture |  | C=CC(C)(O)CCC=C(C)C (stereo not drawn) [linalool] | concentration of hydrophobic compound in clear, homogeneous solution in aqueous Na-MOG [4]: ~2.7%
 | fail to produce a homogeneous mixture | more than 40 days | Cc1c(C)c2c(c(C)c1O)CCC(C)(CCCC(C)CCCC(C)CCCC(C)C)O2 (stereo not drawn) [α-tocopherol] | concentration of hydrophobic compound in clear, homogeneous solution in aqueous Na-MOG [4]: ~2.6%
~2.5 | no homogeneous mixture results | more than 40 days | CC(C)[C@@H]1CC[C@@H](C)C[C@H]1O [l-menthol] | times better dissolved in aqueous Na-MMG than in pure water [1]: at least 40 times; physiological cooling effect (organoleptic test) ([6]; ~2.5% l-menthol solution in aqueous Na-MMG): strong physiological cooling effect; menthol content of aqueous solution in pure water control (gas chromatography) ([3]; 12 g in 876 g water, 2 h, initially 47° C. then ambient, filtered): 0.06%
 | fail to produce a homogeneous mixture | more than 40 days | CC(C)[C@@H]1CC[C@@H](C)C[C@H]1OC(=O)[C@H](C)O [l-menthyl lactate] | 
